Source: patent publication US12544370B2, “Methods for cancer therapy” (ASCENTAGE PHARMA (SUZHOU) CO., LTD., priority 2018, dated 2026)

Legend:
[1] = Phase I study, pharmacokinetics (Example 1); assay type: in vivo, human
[2] = tested on: Ba/F3 cells having BCR-ABL^T315I
[3] = tested on: patients with chronic phase (CP/CML-CP) or accelerated phase (AP/CML-AP) CML resistant to or intolerant of ≥2 prior TKIs or with BCR-ABL T315I; experiment: Phase 1 trial in resistant CML, further efficacy (Example 2); assay type: in vivo, human
Text: (§1) The eligible patients received continuous treatment until disease progression or unacceptable toxicity, consent withdrawal, or death. The primary efficacy endpoints were major cytogenetic response (MCyR) for CP and complete hematological response (CHR) for AP. MCyR includes partial cytogenetic response (PCyR) and complete cytogenetic response (CCyR). Blood samples were collected at various time points on Day 1-2 and Day 27-28 during cycle 1 for PK analyses.

[4] = Phase 1 trial, pharmacokinetics (Example 2); details: for half-life / Tmax: human, in vivo; for Tmax: median Tmax
Text: as §1

[5] = molecular target: Ba/F3 containing BCR-ABL Wild Type (Homo sapiens, UniProt P00519); details: read-out: Antiproliferation Effect (IC50)
[6] = tested on: CRKL phosphorylation in PBMCs, a biomarker of BCR-ABL inhibition; experiment: Phase 1 trial, CRKL phosphorylation in PBMCs (Example 2); assay type: in vivo, human; details: 53 evaluable patients
Text: The eligible patients received treatments until disease progression or intolerable toxicities. The primary efficacy endpoint in the CML AP and CP patients, was complete hematological response (CHR) and major cytogenetic response (MCyR) respectively, MCyR includes partial cytogenetic response (PCyR) and complete cytogenetic response (CCyR). Blood samples were collected at various time points on Day 1-2 and Day 27-28 during cycle 1 for PK analyses.

[7] = tested on: murine Ba/F3 cells expressing BCR-ABL^T315I; experiment: Subcutaneous tumors, isogenic Ba/F3 BCR-ABL T315I model; assay type: in vivo
[8] = tested on: tyrosine phosphorylation of CRKL in peripheral blood mononuclear cell (PBMCs); experiment: Phase I study, pharmacodynamics: CRKL phosphorylation in PBMCs (Example 1); assay type: in vivo, human; details: doses 12 mg-60 mg, schedule and dose-dependent
[9] = tested on: murine Ba/F3 cells expressing BCR-ABL^WT; experiment: Subcutaneous tumors, isogenic Ba/F3 BCR-ABL WT model; assay type: in vivo
[10] = tested on: Ba/F3 cells having BCR-ABL^WT
[11] = Table 4, AP-CML, With T315I mut., 11 evaluable
[12] = Table 4, AP-CML, With T315I mut., 11 evaluated
[13] = Table 4, AP-CML, Without T315I mut., 3 evaluable
[14] = Table 4, AP-CML, Without T315I mut., 3 evaluated
[15] = Table 4, CP-CML, With T315I mut., 48 evaluable
[16] = Table 4, CP-CML, With T315I mut., 51 evaluated
[17] = Table 4, CP-CML, Without T315I mut., 33 evaluable
[18] = Table 4, CP-CML, Without T315I mut., 35 evaluated

Chain of Ba/F3 containing BCR-ABL Wild Type (P00519 whole entry, change not shown): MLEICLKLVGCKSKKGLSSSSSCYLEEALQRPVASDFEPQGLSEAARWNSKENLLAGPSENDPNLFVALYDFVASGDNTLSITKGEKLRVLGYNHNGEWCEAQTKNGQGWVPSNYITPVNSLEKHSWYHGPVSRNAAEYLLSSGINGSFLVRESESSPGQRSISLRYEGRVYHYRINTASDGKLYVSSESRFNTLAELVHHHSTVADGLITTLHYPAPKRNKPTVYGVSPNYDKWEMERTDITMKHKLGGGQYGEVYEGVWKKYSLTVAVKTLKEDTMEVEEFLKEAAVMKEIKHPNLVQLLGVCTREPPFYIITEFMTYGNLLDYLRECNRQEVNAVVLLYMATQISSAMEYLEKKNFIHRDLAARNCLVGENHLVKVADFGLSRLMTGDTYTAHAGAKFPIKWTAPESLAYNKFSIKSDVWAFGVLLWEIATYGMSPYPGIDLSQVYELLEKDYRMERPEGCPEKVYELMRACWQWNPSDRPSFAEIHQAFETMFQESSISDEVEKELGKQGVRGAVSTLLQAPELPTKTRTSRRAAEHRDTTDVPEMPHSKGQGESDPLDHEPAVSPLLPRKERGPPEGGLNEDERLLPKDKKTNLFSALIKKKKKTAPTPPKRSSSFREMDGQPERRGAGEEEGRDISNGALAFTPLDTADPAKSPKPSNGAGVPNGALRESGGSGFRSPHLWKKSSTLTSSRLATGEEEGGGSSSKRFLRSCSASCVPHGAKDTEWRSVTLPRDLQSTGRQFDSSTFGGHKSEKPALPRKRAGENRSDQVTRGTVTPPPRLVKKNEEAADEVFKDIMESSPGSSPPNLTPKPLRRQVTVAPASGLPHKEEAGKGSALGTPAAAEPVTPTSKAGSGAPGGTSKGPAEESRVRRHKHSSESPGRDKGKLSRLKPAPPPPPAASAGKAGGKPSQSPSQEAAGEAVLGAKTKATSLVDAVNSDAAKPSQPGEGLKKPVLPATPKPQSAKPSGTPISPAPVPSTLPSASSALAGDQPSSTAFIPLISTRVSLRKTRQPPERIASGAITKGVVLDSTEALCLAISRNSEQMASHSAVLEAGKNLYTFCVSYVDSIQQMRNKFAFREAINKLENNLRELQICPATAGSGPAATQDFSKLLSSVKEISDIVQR

Cc1ccc(C(=O)Nc2ccc(CN3CCN(C)CC3)c(C(F)(F)F)c2)cc1C#Cc1cnc2[nH]ncc2c1 [compound of formula (I-A), 3-(2-(1H-pyrazolo[3,4-b]pyridin-5-yl)ethynyl)-4-methyl-N-(4-((4-methylpiperazin-1-yl)methyl)-3-(trifluoromethyl)phenyl)-benzamide]
time at which peak concentration was reached ([1]; oral, 1 mg to 60 mg): 2 to 8 h
dose proportionality of Cmax and AUC0-t ([1]; single or multiple oral dose 1 to 60 mg): approximately dose proportional increase
survival rate of isogenic leukemia mice ([2]; Ba/F3 BCR-ABL T315I): significantly improved the survival rate
survival of tumor bearing mice (FIG. 8) ([2]; oral q2d or q3d, dose-dependent manner, imatinib qd as control): significantly prolonged the survival
progression free survival (PFS) rate at 18-month ([3]; AP patients (FIG. 7B)): 61%
progression free survival (PFS) rate at 18-month ([3]; CP patients (FIG. 7B)): 94%
anti-leukemic activity by dose ([3]; Example 2): potent anti-leukemic activities at doses ≥12 mg QOD
CHR achieved ([3]; Example 2, 68 evaluable patients with non-CHR at baseline (CP+AP)): 63 (92.6%) n (%)
Complete molecular response, percent ([3]; Table 4, AP-CML, All Patients, 14 evaluated): (14.3%)
Complete hematological response, percent ([3]; Table 4, AP-CML, With T315I mut., 10 evaluable): (80.0%)
Complete cytogenetic response, percent [3, 11]: (45.5%)
Major cytogenetic response, percent [3, 11]: (54.5%)
Complete molecular response, percent [3, 12]: (18.2%)
Major/Complete molecular response, percent [3, 12]: (45.5%)
Complete cytogenetic response [3, 13]: 0 n(%)
Complete hematological response [3, 13]: 3 (100.0%) n(%)
Major cytogenetic response [3, 13]: 0 n(%)
Complete molecular response [3, 14]: 0 n(%)
Major/Complete molecular response [3, 14]: 0 n(%)
Complete molecular response, percent ([3]; Table 4, CP-CML, All Patients, 86 evaluated): (20.9%)
Complete hematological response, percent ([3]; Table 4, CP-CML, With T315I mut., 33 evaluable): (97.0%)
Complete cytogenetic response, percent [3, 15]: (77.1%)
Major cytogenetic response, percent [3, 15]: (81.3%)
Complete molecular response, percent [3, 16]: (29.4%)
Major/Complete molecular response, percent [3, 16]: (52.9%)
Complete hematological response, percent ([3]; Table 4, CP-CML, Without T315I mut., 22 evaluable): (90.9%)
Complete cytogenetic response, percent [3, 17]: (36.4%)
Major cytogenetic response, percent [3, 17]: (51.5%)
Complete molecular response, percent [3, 18]: (8.6%)
Major/Complete molecular response, percent [3, 18]: (14.3%)
time at which peak concentration was reached ([4]; Day 1, single oral administration, 1-60 mg): 1 to 12 h
time at which peak concentration was observed ([4]; Day 27, QOD): 1 to 12 h
half-life ([4]; mean terminal T1/2, Day 1, 1-60 mg, watching time window 48 hrs): 17.5 to 36.5 h
half-life ([4]; mean terminal T1/2, Day 27, watching time window 48 hrs): 19.8 to 42.5 h
Tmax ([4]; Day 1, 1-60 mg): 4 to 8 h
Tmax ([4]; Day 27, QOD): 4 to 6 h
GI50 [5]: 6 ± 3 nM
reduction of CRKL phosphorylation in PBMCs [6]: dose and time dependent
effect on subcutaneous tumors [7]: complete regression
reduction of CRKL phosphorylation [8]: ≥ 50%
effect on subcutaneous tumors [9]: complete regression
survival rate of isogenic leukemia mice [10]: significantly improved the survival rate
